Measurements taken from patent US20260146035A1, “FUSED BICYCLIC COMPOUNDS AND THEIR USE AS MER AND AXL INHIBITORS” (DONG-A ST CO., LTD., priority 2022, published 2026).

Key:
human AXL (473-end) = target: T1, human AXL (473-end) (Homo sapiens, UniProt P30530); experiment: HTRF kinase activity biochemical assay, AXL; conditions: 10 μM ATP, 30 minutes pre-incubation
T1 construct: human AXL (473-end); purchased SignalChem, Canada
T1 sequence (P30530 473-894 limits assumed): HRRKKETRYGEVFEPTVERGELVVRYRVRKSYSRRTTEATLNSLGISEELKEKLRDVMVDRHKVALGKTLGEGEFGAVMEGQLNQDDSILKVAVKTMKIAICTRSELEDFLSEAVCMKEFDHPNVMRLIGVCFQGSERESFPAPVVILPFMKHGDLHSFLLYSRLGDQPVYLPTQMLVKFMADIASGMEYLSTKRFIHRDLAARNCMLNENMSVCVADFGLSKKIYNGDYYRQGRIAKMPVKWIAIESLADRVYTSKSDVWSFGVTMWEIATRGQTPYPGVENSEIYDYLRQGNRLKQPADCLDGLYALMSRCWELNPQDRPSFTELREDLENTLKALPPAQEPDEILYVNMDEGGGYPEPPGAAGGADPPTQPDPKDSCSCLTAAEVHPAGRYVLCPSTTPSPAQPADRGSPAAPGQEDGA

human MER (528-end) = target: T2, human MER (528-end) (Homo sapiens, UniProt Q12866); experiment: HTRF kinase activity biochemical assay, MER; conditions: 10 μM ATP, 30 minutes pre-incubation; read-out: HTRF MERTK IC50
T2 construct: human MER (528-end); purchased Camnabio, Japan
T2 sequence (Q12866 528-999 limits assumed): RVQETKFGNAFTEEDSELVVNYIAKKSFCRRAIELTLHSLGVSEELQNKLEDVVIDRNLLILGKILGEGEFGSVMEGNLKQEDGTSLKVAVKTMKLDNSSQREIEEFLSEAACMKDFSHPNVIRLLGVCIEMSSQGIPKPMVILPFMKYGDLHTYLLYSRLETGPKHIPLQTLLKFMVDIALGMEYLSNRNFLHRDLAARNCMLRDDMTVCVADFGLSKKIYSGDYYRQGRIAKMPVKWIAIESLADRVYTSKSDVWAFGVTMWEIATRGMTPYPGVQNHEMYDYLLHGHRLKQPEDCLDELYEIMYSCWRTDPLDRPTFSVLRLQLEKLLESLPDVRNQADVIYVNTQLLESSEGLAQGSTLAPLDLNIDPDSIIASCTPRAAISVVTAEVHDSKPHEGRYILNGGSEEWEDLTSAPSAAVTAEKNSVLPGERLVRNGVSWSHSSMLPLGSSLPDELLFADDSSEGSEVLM

human TYRO3 (455-end) = target: T3, human TYRO3 (455-end) (Homo sapiens, UniProt Q06418); experiment: HTRF kinase activity biochemical assay, TYRO3; conditions: 10 μM ATP, 30 minutes pre-incubation; read-out: HTRF TYRO IC50
T3 construct: TYRO3 (455-end); purchased SignalChem, Canada
T3 sequence (Q06418 455-890 limits assumed): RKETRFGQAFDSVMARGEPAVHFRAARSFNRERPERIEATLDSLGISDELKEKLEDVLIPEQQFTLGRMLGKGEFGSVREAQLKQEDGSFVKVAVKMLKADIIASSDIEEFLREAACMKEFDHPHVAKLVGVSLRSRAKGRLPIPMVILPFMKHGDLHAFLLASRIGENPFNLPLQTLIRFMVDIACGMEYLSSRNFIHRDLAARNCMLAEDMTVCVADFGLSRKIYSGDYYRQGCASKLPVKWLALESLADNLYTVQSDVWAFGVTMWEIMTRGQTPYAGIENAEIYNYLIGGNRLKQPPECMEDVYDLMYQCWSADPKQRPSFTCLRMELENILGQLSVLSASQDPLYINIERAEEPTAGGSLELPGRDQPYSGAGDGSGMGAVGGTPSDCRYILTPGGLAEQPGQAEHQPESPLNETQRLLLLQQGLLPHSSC

SMILES | IC50 (human AXL (473-end)) | IC50 (human MER (528-end)) | IC50 (human TYRO3 (455-end))
CN1CCC(C(=O)NC2Cc3ccc(-c4ccc(CO[C@H]5CCC[C@@H]5NC(=O)c5cc(-c6cnn(C)c6)cnc5N)cc4)cc3C2)CC1 (stereo partly drawn) [Example 10, 2-amino-N-{(1S,2S)-2-[(4-{2-[(1-methylpiperidine-4-carbonyl)amino]-2,3-dihydro-1H-inden-5-yl}phenyl)methoxy]cyclopentyl}-5-(1-methyl-1H-pyrazol-4-yl)pyridine-3-carboxamide] | 10 to 100 nM | < 10 nM | > 1000 nM
CN(C)CC(=O)N1CCc2cc(-c3ccc(CO[C@H]4CCC[C@@H]4NC(=O)c4cc(-c5cnn(C)c5)cnc4N)cc3)ccc21 [Example 2, 2-amino-N-{(1S,2S)-2-[(4-{1-[(dimethylamino)acetyl]-2,3-dihydro-1H-indol-5-yl}phenyl)methoxy]cyclopentyl}-5-(1-methyl-1H-pyrazol-4-yl)pyridine-3-carboxamide] | 100 to 1000 nM | 100 to 1000 nM | > 1000 nM
Nc1ncc(C(F)(F)F)cc1C(=O)N[C@H]1CCC[C@@H]1OCc1ccc(-c2ccc3c(ccn3C3CCN(CCO)CC3)c2)cc1 [Example 21, 2-amino-N-{(1S,2S)-2-[(4-{1-[1-(2-hydroxyethyl)piperidin-4-yl]-1H-indol-5-yl}phenyl)methoxy]cyclopentyl}-5-(trifluoromethyl)pyridine-3-carboxamide] | 10 to 100 nM | < 10 nM | > 1000 nM
Nc1ncc(C(F)(F)F)cc1C(=O)N[C@H]1CCC[C@@H]1OCc1ccc(-c2ccc3c(c2)CC[C@@H]3N2CCN(CCO)CC2)cc1 [Example 131, 2-amino-N-{(1S,2S)-2-[(4-{(1S)-1-[4-(2-hydroxyethyl)piperazin-1-yl]-2,3-dihydro-1H-inden-5-yl}phenyl)methoxy]cyclopentyl}-5-(trifluoromethyl)pyridine-3-carboxamide] | < 10 nM | < 10 nM | 100 to 1000 nM
Cn1cc(-c2cnc(N)c(C(=O)N[C@H]3CCC[C@@H]3OCc3ccc(-c4ccc5c(c4)C(C)(C)CN5C4CCN(CC(N)=O)CC4)cc3)c2)cn1 [Example 27, 2-amino-N-{(1S,2S)-2-[(4-{1-[1-(2-amino-2-oxoethyl)piperidin-4-yl]-3,3-dimethyl-2,3-dihydro-1H-indol-5-yl}phenyl)methoxy]cyclopentyl}-5-(1-methyl-1H-pyrazol-4-yl)pyridine-3-carboxamide] | 10 to 100 nM | < 10 nM | 100 to 1000 nM
Nc1ncc(-c2ccc(F)nc2)cc1C(=O)N[C@H]1CCC[C@@H]1OCc1ccc(-c2ccc3c(c2)CC(F)(F)C3N2CCN(CCO)CC2)cc1 (stereo partly drawn) [Example 86, 6-amino-N-{(1S,2S)-2-[(4-{2,2-difluoro-1-[4-(2-hydroxyethyl)piperazin-1-yl]-2,3-dihydro-1H-inden-5-yl}phenyl)methoxy]cyclopentyl}-6′-fluoro[3,3′-bipyridine]-5-carboxamide] | < 10 nM | < 10 nM | 100 to 1000 nM
CN1CC(C)(C)c2cc(-c3ccc(CO[C@H]4CCC[C@@H]4NC(=O)c4cc(-c5cnn(C)c5)cnc4N)cc3)ccc21 [Example 17, 2-amino-5-(1-methyl-1H-pyrazol-4-yl)-N-[(1S,2S)-2-{[4-(1,3,3-trimethyl-2,3-dihydro-1H-indol-5-yl)phenyl]methoxy}cyclopentyl]pyridine-3-carboxamide] | 10 to 100 nM | 10 to 100 nM | > 1000 nM
Cn1cc(-c2cnc(N)c(C(=O)N[C@H]3CCC[C@@H]3OCc3ccc(-c4ccc5c(c4)CCC[C@H]5N4CCN(C[C@H](O)CO)CC4)cc3)c2)cn1 [Example 170, 2-amino-N-[(1S,2S)-2-({4-[(5R)-5-{4-[(2S)-2,3-dihydroxypropyl]piperazin-1-yl}-5,6,7,8-tetrahydronaphthalen-2-yl]phenyl}methoxy)cyclopentyl]-5-(1-methyl-1H-pyrazol-4-yl)pyridine-3-carboxamide] | 10 to 100 nM | 10 to 100 nM | > 1000 nM
COc1c(-c2cnn(C)c2)cnc(N)c1C(=O)N[C@H]1CCC[C@@H]1OCc1ccc(-c2ccc3c(c2)CC[C@@H]3N2CCN(CCO)CC2)cc1 [Example 155, 2-amino-N-{(1S,2S)-2-[(4-{(1S)-1-[4-(2-hydroxyethyl)piperazin-1-yl]-2,3-dihydro-1H-inden-5-yl}phenyl)methoxy]cyclopentyl}-4-methoxy-5-(1-methyl-1H-pyrazol-4-yl)pyridine-3-carboxamide] | < 10 nM | < 10 nM | 100 to 1000 nM
Cn1cc(-c2cnc(N)c(C(=O)N[C@H]3COC[C@@H]3OCc3ccc(-c4ccc5c(c4)C(C)(C)CN5C4CCN(CCO)CC4)cc3)c2)cn1 [Example 32, 2-amino-N-{(3S,4R)-4-[(4-{1-[1-(2-hydroxyethyl)piperidin-4-yl]-3,3-dimethyl-2,3-dihydro-1H-indol-5-yl}phenyl)methoxy]oxolan-3-yl}-5-(1-methyl-1H-pyrazol-4-yl)pyridine-3-carboxamide] | < 10 nM | < 10 nM | 10 to 100 nM
CC1(C)CN(C2CCN(CCO)CC2)c2ccc(-c3ccc(CO[C@H]4CCC[C@@H]4NC(=O)c4cc(-c5ccc(F)nc5)cnc4N)cc3)cc21 [Example 31, 6-amino-6′-fluoro-N-{(1S,2S)-2-[(4-{1-[1-(2-hydroxyethyl)piperidin-4-yl]-3,3-dimethyl-2,3-dihydro-1H-indol-5-yl}phenyl)methoxy]cyclopentyl}[3,3′-bipyridine]-5-carboxamide] | < 10 nM | < 10 nM | 10 to 100 nM
Cn1cc(-c2cnc(N)c(C(=O)N[C@H]3CCC[C@@H]3OCc3ccc(-c4ccc5c(ccn5C5CCN(C(=O)OC(C)(C)C)CC5)c4)cc3)c2)cn1 [Example 4, tert-butyl 4-{5-[4-({[(1S,2S)-2-{[2-amino-5-(1-methyl-1H-pyrazol-4-yl)pyridine-3-carbonyl]amino}cyclopentyl]oxy}methyl)phenyl]-1H-indol-1-yl}piperidine-1-carboxylate] | 100 to 1000 nM | > 1000 nM | > 1000 nM
N#Cc1ccc(-c2cnc(N)c(C(=O)N[C@H]3CCC[C@@H]3OCc3ccc(-c4ccc5c(c4)CC[C@@H]5N4CCN(CCO)CC4)cc3)c2)cn1 [Example 153, 6-amino-6′-cyano-N-{(1S,2S)-2-[(4-{(1S)-1-[4-(2-hydroxyethyl)piperazin-1-yl]-2,3-dihydro-1H-inden-5-yl}phenyl)methoxy]cyclopentyl}[3,3′-bipyridine]-5-carboxamide] | < 10 nM | < 10 nM | 100 to 1000 nM
COc1c(-c2cnn(C)c2)cnc(N)c1C(=O)N[C@H]1CCC[C@@H]1OCc1ccc(-c2ccc3c(c2)CC[C@@H]3N2CCN(C)CC2)cc1 [Example 157, 2-amino-4-methoxy-N-[(1S,2S)-2-({4-[(1S)-1-(4-methylpiperazin-1-yl)-2,3-dihydro-1H-inden-5-yl]phenyl}methoxy)cyclopentyl]-5-(1-methyl-1H-pyrazol-4-yl)pyridine-3-carboxamide] | < 10 nM | < 10 nM | 100 to 1000 nM
CN1CCN([C@H]2CCc3cc(-c4ccc(CO[C@H]5CCC[C@@H]5NC(=O)c5cc(-c6cccnc6F)cnc5N)cc4)ccc32)CC1 [Example 116, 6-amino-2′-fluoro-N-[(1S,2S)-2-({4-[(1S)-1-(4-methylpiperazin-1-yl)-2,3-dihydro-1H-inden-5-yl]phenyl}methoxy)cyclopentyl][3,3′-bipyridine]-5-carboxamide] | < 10 nM | < 10 nM | 100 to 1000 nM
